The EC50 is the concentration that produces a half-maximal response.

This assay has as its target T1, human IL-17AA (Homo sapiens, UniProt Q16552).
T1 construct: host or cells: HEK (human embryonic kidney) cells
T1 sequence (Q16552 24-155) 1: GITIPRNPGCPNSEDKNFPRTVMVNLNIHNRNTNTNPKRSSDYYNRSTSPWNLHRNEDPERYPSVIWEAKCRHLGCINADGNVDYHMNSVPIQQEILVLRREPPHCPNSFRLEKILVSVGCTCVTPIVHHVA
T1 sequence (Q16552 24-155) 2: T1 sequence (Q16552 24-155) 1
Put plainly: IL-8 release assay in human epithelial keratinocytes adult (HEKa). Conditions: 3 ng/ml human IL-17AA + 10 ng/ml human TNFalpha, 68-72 h, IL-8 by HTRF, read-out: Rel EC50 L-8 release assay. The class given is cell-based. Put shortly: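 Adult human keratinocytes in Epilife with HKGS minus hydrocortisone, treated with compound then stimulated with final 3 ng/ml HEK-derived human IL-17AA plus 10 ng/ml TNF-alpha for 68–72 h at 37 °C; TNF-alpha alone defines 100% inhibition. Secreted IL-8 by HTRF; relative IC50 and Emax from four-parameter fits.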
(TR-FRET usually uses a lanthanide donor and a delayed reading to cut background.)
As for `Cc1nccn1-c1ccc(NC(=O)[C@@H](NC(=O)C2(F)CC2)[C@@H]2CCCc3ccc(-c4ccnc(N5C[C@H]6C[C@@H]5CO6)c4)cc32)cc1` [Example 401, 1-fluoro-N-[(1S)-2-[4-(2-methylimidazol-1-yl)anilino]-1-[(1R)-7-[2-[(1R,4R)-2-oxa-5-azabicyclo[2.2.1]heptan-5-yl]-4-pyridyl]tetralin-1-yl]-2-oxo-ethyl]cyclopropanecarboxamide], the concentration giving a half-maximal response (EC50) was 100 to 1000 nM.
Then `Cc1n[nH]c(C)c1-c1ccc(NC(=O)[C@H](Cc2cc(-c3ccc(=O)n(C(C)C)c3)ccc2Cl)NC(=O)C2(F)CC2)cc1` [Example 137, N-[(1S)-1-[[2-chloro-5-(1-isopropyl-6-oxo-3-pyridyl)phenyl]methyl]-2-[4-(3,5-dimethyl-1H-pyrazol-4-yl)anilino]-2-oxo-ethyl]-1-fluoro-cyclopropanecarboxamide], with below 100 nM.
For “N-[(1S)-2-[6-chloro-3-(1-isopropyl- 6-oxo-3-pyridyl)cyclohexa-2,4-dien- 1-yl]-1-[[4-(3-methylimidazol-4- yl)phenyl]carbamoyl]propyl]-2- methyl-pyrazole-3-carboxamide [Example 54]”, the EC50 lay in the range of 100 to 1000 nM.
As to `CC(c1cc(-c2ccc(=O)n(C(C)C)c2)ccc1Cl)[C@H](NC(=O)OC1CC1)C(=O)Nc1ccc(-c2cncn2C)cc1` (stereo partly drawn) [Example 53, cyclopropyl N-[(1S)-2-[2-chloro-5-(1-isopropyl-6-oxo-3-pyridyl)phenyl]-1-[[4-(3-methylimidazol-4-yl)phenyl]carbamoyl]propyl] carbamate], the EC50 was in the range of 100 to 1000 nM.
The same measure for `Cc1n[nH]c(C)c1-c1ccc(NC(=O)[C@@H](NC(=O)C2(F)CC2)[C@@H]2CCc3ccc(-c4cccc(N5C[C@@H]6C[C@H]5CN6)c4)cc32)cc1` [Example 373, N-[(1S)-1-[(1R)-6-[3-[(1S,4S)-2,5-diazabicyclo[2.2.1]heptan-2-yl]phenyl]indan-1-yl]-2-[4-(3,5-dimethyl-1H-pyrazol-4-yl)anilino]-2-oxo-ethyl]-1-fluoro-cyclopropanecarboxamide]: below 100 nM; for `CC(C)c1cc(-c2ccc(Cl)c(C[C@H](NC(=O)c3ccnn3C)C(=O)Nc3ccc(-c4cncn4C)cc3)c2)ncn1` [Example 205, N-[(1S)-1-[[2-chloro-5-(6-isopropylpyrimidin-4-yl)phenyl]methyl]-2-[4-(3-methylimidazol-4-yl)anilino]-2-oxo-ethyl]-2-methyl-pyrazole-3-carboxamide]: 100 to 1000 nM; for `CC(C)n1cc(-c2ccc(Cl)c(CC(NC(=O)OC(C)(C)C)C(=O)Nc3ccc(-c4cncn4C)c(Cl)c3)c2)ccc1=O` (centres unmarked) [Example 101, tert-butyl N-[1-[[2-chloro-5-(1-isopropyl-6-oxo-3-pyridyl)phenyl]methyl]-2-[3-chloro-4-(3-methylimidazol-4-yl)anilino]-2-oxo-ethyl]carbamate]: above 1000 nM.
Then `CC(C)n1cc(-c2ccc(Cl)c(CC(NC(=O)c3ccnn3C)C(=O)Nc3ccc(-c4cnn[nH]4)cc3)c2)ccc1=O` (centres unmarked) [Example 83, N-[1-[[2-chloro-5-(1-isopropyl-6-oxo-3-pyridyl)phenyl]methyl]-2-oxo-2-[4-(1H-triazol-5-yl)anilino]ethyl]-2-methyl-pyrazole-3-carboxamide], with 100 to 1000 nM; and `Cc1nccn1-c1ccc(NC(=O)C(Cc2cc(-c3ccc(=O)n(C(C)C)c3)ccc2Cl)NC(=O)c2ccnn2C)cc1` (centres unmarked) [Example 68, N-[1-[[2-chloro-5-(1-isopropyl-6-oxo-3-pyridyl)phenyl]methyl]-2-[4-(2-methylimidazol-1-yl)anilino]-2-oxo-ethyl]-2-methyl-pyrazole-3-carboxamide], with above 1000 nM.
The same measure for `Cc1n[nH]c(C)c1-c1ccc(NC(=O)[C@H](Cc2cc(-c3cnn(C(C)(C)C)c3)ccc2Cl)NC(=O)c2ccnn2C)cc1` [Example 200, N-[(1S)-1-[[5-(1-tert-butylpyrazol-4-yl)-2-chloro-phenyl]methyl]-2-[4-(3,5-dimethyl-1H-pyrazol-4-yl)anilino]-2-oxo-ethyl]-2-methyl-pyrazole-3-carboxamide]: below 100 nM; for `CC(C)n1cc(-c2ccc(Cl)c(C[C@H](NC(=O)OC3CC3)C(=O)Nc3ccc(-c4nncn4C)cc3)c2)ccc1=O` [Example 131, cyclopropyl N-[(1S)-1-[[2-chloro-5-(1-isopropyl-6-oxo-3-pyridyl)phenyl]methyl]-2-[4-(4-methyl-1,2,4-triazol-3-yl)anilino]-2-oxo-ethyl]carbamate]: 100 to 1000 nM; for `Cc1nocc1C(=O)N[C@@H](Cc1cc(-c2ccnc(C(=O)C(C)(C)C)c2)ccc1Cl)C(=O)Nc1ccc(-c2nncn2C)cc1` [Example 84, N-[(1S)-1-[[2-chloro-5-[2-(2,2-dimethylpropanoyl)-4-pyridyl]phenyl]methyl]-2-[4-(4-methyl-1,2,4-triazol-3-yl)anilino]-2-oxo-ethyl]-3-methyl-isoxazole-4-carboxamide]: 100 to 1000 nM.
Regarding `Cc1cc(-c2ccc(Cl)c(CC(NC(=O)c3ccnn3C)C(=O)Nc3ccc(-c4nncn4C)cc3)c2)ccc1C#N` (centres unmarked) [Example 309, N-[1-[[2-chloro-5-(4-cyano-3-methyl-phenyl)phenyl]methyl]-2-[4-(4-methyl-1,2,4-triazol-3-yl)anilino]-2-oxo-ethyl]-2-methyl-pyrazole-3-carboxamide], the EC50 was above 1000 nM.
With `Cc1nocc1C(=O)N[C@@H](Cc1cc(-c2ccc(=O)n(C(C)C)c2)ccc1Cl)C(=O)Nc1ccc(-c2cncn2C)c(O)c1` [Example 132, N-[(1S)-1-[[2-chloro-5-(1-isopropyl-6-oxo-3-pyridyl)phenyl]methyl]-2-[3-hydroxy-4-(3-methylimidazol-4-yl)anilino]-2-oxo-ethyl]-3-methyl-isoxazole-4-carboxamide], the concentration giving a half-maximal response (EC50) is below 100 nM.
The same measure for `Cn1cncc1-c1ccc(NC(=O)C(Cc2cc(-c3ccnc(N4CC[C@H]4CO)c3)ccc2Cl)NC(=O)c2ccnn2C)cc1` (stereo partly drawn) [Example 188, N-[1-[[2-chloro-5-[2-[(2S)-2-(hydroxymethyl)azetidin-1-yl]-4-pyridyl]phenyl]methyl]-2-[4-(3-methylimidazol-4-yl)anilino]-2-oxo-ethyl]-2-methyl-pyrazole-3-carboxamide]: 100 to 1000 nM; for `CC(C)n1cc(-c2ccc(Cl)c(C[C@H](NC(=O)C(C)(C)F)C(=O)Nc3ccc(-c4nncn4C)cc3)c2)ccc1=O` [Example 282, N-[(1S)-1-[[2-chloro-5-(1-isopropyl-6-oxo-3-pyridyl)phenyl]methyl]-2-[4-(4-methyl-1,2,4-triazol-3-yl)anilino]-2-oxo-ethyl]-2-fluoro-2-methyl-propanamide]: above 1000 nM.
The same measure for `CC(C)c1cc(-c2ccc(Cl)c(CC(NC(=O)c3ccnn3C)C(=O)Nc3ccc(-c4nncn4C)cc3)c2)ccc1C#N` (centres unmarked) [Example 202, N-[1-[[2-chloro-5-(4-cyano-3-isopropyl-phenyl)phenyl]methyl]-2-[4-(4-methyl-1,2,4-triazol-3-yl)anilino]-2-oxo-ethyl]-2-methyl-pyrazole-3-carboxamide]: 100 to 1000 nM; for `Cc1n[nH]c(C)c1-c1ccc(NC(=O)[C@@H](NC(=O)C2(F)CC2)[C@@H]2CCc3ccc(-c4ccnc(N5C[C@@H]6C[C@H]5CN6)c4)cc32)cc1` [Example 23, N-[(1S)-1-[(1R)-6-[2-[(1S,4S)-2,5-diazabicyclo[2.2.1]heptan-2-yl]-4-pyridyl]indan-1-yl]-2-[4-(3,5-dimethyl-1H-pyrazol-4-yl)anilino]-2-oxo-ethyl]-1-fluoro-cyclopropanecarboxamide]: below 100 nM; for `Cn1cnnc1-c1ccc(NC(=O)C(Cc2cc(-c3cccc(CC4CC4)c3)ccc2Cl)NC(=O)c2ccnn2C)cc1` (centres unmarked) [Example 169, N-[1-[[2-chloro-5-[3-(cyclopropylmethyl)phenyl]phenyl]methyl]-2-[4-(4-methyl-1,2,4-triazol-3-yl)anilino]-2-oxo-ethyl]-2-methyl-pyrazole-3-carboxamide]: 100 to 1000 nM.
For `CC(C)n1cc(-c2ccc(Cl)c(CC(NC(=O)c3ccnn3C)C(=O)Nc3ccc(-c4nn[nH]n4)cc3)c2)ccc1=O` (centres unmarked) [Example 66, N-[1-[[2-chloro-5-(1-isopropyl-6-oxo-3-pyridyl)phenyl]methyl]-2-oxo-2-[4-(2H-tetrazol-5-yl)anilino]ethyl]-2-methyl-pyrazole-3-carboxamide], the EC50 was above 1000 nM.
Then `Cn1cnnc1-c1ccc(NC(=O)C(Cc2cc(-c3ccc(O)c(C(=O)N4CCOCC4)c3)ccc2Cl)NC(=O)c2ccnn2C)cc1` (centres unmarked) [Example 296, N-[1-[[2-chloro-5-[4-hydroxy-3-(morpholine-4-carbonyl)phenyl]phenyl]methyl]-2-[4-(4-methyl-1,2,4-triazol-3-yl)anilino]-2-oxo-ethyl]-2-methyl-pyrazole-3-carboxamide], with above 1000 nM; and `Cn1cnnc1-c1ccc(NC(=O)C(Cc2cc(-c3ccc(O)c(CN4CCOCC4)c3)ccc2Cl)NC(=O)c2ccnn2C)cc1` (centres unmarked) [Example 130, N-[1-[[2-chloro-5-[4-hydroxy-3-(morpholinomethyl)phenyl]phenyl]methyl]-2-[4-(4-methyl-1,2,4-triazol-3-yl)anilino]-2-oxo-ethyl]-2-methyl-pyrazole-3-carboxamide], with 100 to 1000 nM.
The same measure for `Cn1cnnc1-c1ccc(NC(=O)C(Cc2cc(-c3cccc(OC4CCC4)c3)ccc2Cl)NC(=O)c2ccnn2C)cc1` (centres unmarked) [Example 145, N-[1-[[2-chloro-5-[3-(cyclobutoxy)phenyl]phenyl]methyl]-2-[4-(4-methyl-1,2,4-triazol-3-yl)anilino]-2-oxo-ethyl]-2-methyl-pyrazole-3-carboxamide]: 100 to 1000 nM.

Values taken from patent US20220162191A1, “SMALL MOLECULE MODULATORS OF IL-17” (LEO PHARMA A/S, priority 2019, published 2022).
